Source: ChEMBL document CHEMBL1135139, “Solid-phase synthesis of thrombin inhibitors” (Bioorg Med Chem Lett, 2002)
pIC50: −log10 of the molar value.

Molecular target: Prothrombin (Homo sapiens, UniProt P00734)
Assay: In vitro Inhibitory concentration against Thrombin

## N=C(N)c1ccc(CNC(=O)[C@@H]2C=CCN2C(=O)[C@@H](CC2CCCCC2)NCC(=O)O)s1
  pIC50: 8.44
